Laboratory results published in patent publication US6653300B2, “Pyrazole compounds useful as protein kinase inhibitors” (Vertex Pharmaceuticals Incorporated, priority 2000, dated 2003).
pKi: −log10 of the molar value.

Assays:
GSK-3β (AA 1-420) = target: T1, GSK-3β (AA 1-420) (Homo sapiens, UniProt P49841); test: Ki determination for the inhibition of GSK-3 (coupled enzyme system); format: biochemical; conditions: 20 μM ATP, 20 nM GSK-3β, 30° C.
T1 construct: GSK-3β (AA 1-420)
Procedure: Compounds were screened for their ability to inhibit GSK-3β (AA 1-420) activity using a standard coupled enzyme system (Fox et al. (1998) Protein Sci. 7, 2249). Reactions were carried out in a solution containing 100 mM HEPES (pH 7.5), 10 mM MgCl2, 25 mM NaCl, 300 μM NADH, 1 mM DTT and 1.5% DMSO. Final substrate concentrations in the assay were 20 μM ATP (Sigma Chemicals, St Louis, Mo.) and 300 μM peptide (HSSPHQS (PO3H2) EDEEE, American Peptide, Sunnyvale, Calif.). Reactions were carried out at 30° C. and 20 nM GSK-3β. Final concentrations of the components of the coupled enzyme system were 2.5 mM phosphoenolpyruvate, 300 μM NADH, 30 μg/ml pyruvate kinase and 10 μg/ml lactate dehydrogenase.
An assay stock buffer solution was prepared containing all of the reagents listed above with the exception of ATP and the test compound of interest. The assay stock buffer solution (175 μl) was incubated in a 96 well plate with 5 μl of the test compound of interest at final concentrations spanning 0.002 μM to 30 μM at 30° C. for 10 min. […] The reaction was initiated by the addition of 20 μl of ATP (final concentration 20 μM). Rates of reaction were obtained using a Molecular Devices Spectramax plate reader (Sunnyvale, Calif.) over 10 min at 30° C. The Ki values were determined from the rate data as a function of inhibitor concentration.

T1 sequence (P49841 whole entry, the tested form may be a part): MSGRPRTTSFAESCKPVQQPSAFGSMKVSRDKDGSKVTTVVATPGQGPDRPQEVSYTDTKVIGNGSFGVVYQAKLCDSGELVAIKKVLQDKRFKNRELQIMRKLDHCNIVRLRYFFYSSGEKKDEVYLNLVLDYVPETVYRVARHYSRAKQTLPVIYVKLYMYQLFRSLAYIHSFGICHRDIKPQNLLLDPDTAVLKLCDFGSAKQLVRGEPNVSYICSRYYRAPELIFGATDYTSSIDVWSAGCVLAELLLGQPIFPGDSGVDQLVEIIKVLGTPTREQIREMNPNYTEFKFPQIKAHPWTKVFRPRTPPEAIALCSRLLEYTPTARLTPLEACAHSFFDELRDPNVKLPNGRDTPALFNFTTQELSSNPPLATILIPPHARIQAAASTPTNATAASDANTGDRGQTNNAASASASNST

SMILES	melting point [°C]	pKi (GSK-3β (AA 1-420))
Cc1cc(Nc2cc(-c3c(C)cccc3C)nc(Sc3ccc4ccccc4c3)n2)n[nH]1 [IIIa-9, [6-(2,6-Dimethylphenyl)-2-(naphthalen-2-ylsulfanyl)-pyrimidin-4-yl]-(5-methyl-2H-pyrazol-3-yl)-amine]	148 to 152	
CC(=O)Nc1ccc(Sc2nc(Nc3cc(C)[nH]n3)cc(-c3ccccc3)n2)cc1 [IIIa-11, [2-(4-Acetamido-phenylsulfanyl)-6-phenyl-pyrimidin-4-yl]-(5-methyl-2H-pyrazol-3-yl)-amine]		6.00 to 7.00
Cc1cc(Nc2cc(-c3ccccc3)nc(Sc3ccc4ccccc4c3)n2)n[nH]1 [IIIa-12, (5-Methyl-2H-pyrazol-3-yl)-[2-(naphthalen-2-ylsulfanyl)-6-phenyl-pyrimidin-4-yl]-amine]	237 to 239	
CCC(=O)Nc1ccc(Sc2nc(Nc3cc(C)[nH]n3)cc(-c3ccccc3)n2)cc1 [IIIa-15, (5-Methyl-2H-pyrazol-3-yl)-[6-phenyl-2-(4-propionylamino-phenylsulfanyl)-pyrimidin-4-yl]-amine]		5.15 to 6.00
Cc1cc(Nc2cc(-c3ccccc3)nc(Sc3ccc(NC(=O)CC(C)C)cc3)n2)n[nH]1 [IIIa-20, [2-(4-Isobutanecarbonylamino-phenyl-sulfanyl)-6-phenyl-pyrimidin-4-yl]-(5-methyl-2H-pyrazol-3-yl)-amine]	241 to 243	
Cc1cc(Nc2cc(N3CCN(C)CC3)nc(SCc3ccccc3)n2)n[nH]1 [IIIa-28, [2-Benzylsulfanyl-6-(4-methylpiperazin-1-yl)-pyrimidin-4-yl]-(5-methyl-2H-pyrazol-3-yl)-amine]		5.15 to 6.00
Cc1cc(Nc2cc(N3CCOCC3)nc(SCc3ccccc3)n2)n[nH]1 [IIIa-29, [2-Benzylsulfanyl-6-morpholin-4-yl-pyrimidin-4-yl]-(5-methyl-2H-pyrazol-3-yl)-amine]		6.00 to 7.00
Cc1cc(Nc2cc(N3CCN(C)CC3)nc(SCc3cccc(Cl)c3)n2)n[nH]1 [IIIa-30, [2-(3-Chloro-benzylsulfanyl)-6-(4-methylpiperazin-1-yl)-pyrimidin-4-yl]-(5-methyl-2H-pyrazol-3-yl)-amine]		6.00 to 7.00
COc1ccc(CSc2nc(Nc3cc(C)[nH]n3)cc(N3CCN(C)CC3)n2)cc1 [IIIa-31, [2-(4-methoxy-benzylsulfanyl)-6-(4-methylpiperazin-1-yl)-pyrimidin-4-yl]-(5-methyl-2H-pyrazol-3-yl)-amine]		6.00 to 7.00
Cc1cc(Nc2cc(N3CCOCC3)nc(SCc3ccc(S(=O)(=O)N4CCOCC4)cc3)n2)n[nH]1 [IIIa-35, (5-Methyl-2H-pyrazol-3-yl)-{2-[4-(morpholinesulfonyl)-benzylsulfanyl]-6-morpholin-4-yl-pyrimidin-4-yl}-amine]		5.15 to 6.00
CCC(=O)Nc1ccc(Sc2nc(COC)cc(Nc3cc(C)[nH]n3)n2)cc1 [IIIa-38, [6-Methoxymethyl-2-(4-propionylamino-phenyl-sulfanyl)-pyrimidin-4-yl]-(5-methyl-2H-pyrazol-3-yl)-amine]		5.15 to 6.00
COc1cc(CSc2nc(Nc3cc(C)[nH]n3)cc(N3CCCC3)n2)cc(OC)c1 [IIIa-41, [2-(3,5-Dimethoxy-benzylsulfanyl)-6-pyrrolidin-4-yl-pyrimidin-4-yl]-(5-methyl-2H-pyrazol-3-yl)-amine]		5.15 to 6.00
CCC(=O)Nc1ccc(Sc2nc(CO)cc(Nc3cc(C)n[nH]3)n2)cc1 [IIIa-45, [6-Hydroxymethyl-2-(4-propionylamino-phenyl-sulfanyl)-pyrimidin-4-yl]-(5-methyl-2H-pyrazol-3-yl)-amine]		5.15 to 6.00
CNC(=O)c1cc(Nc2cc(C)[nH]n2)nc(Sc2ccc(NC(C)=O)cc2)n1 [IIIa-49]		5.15 to 6.00
CC(=O)Nc1ccc(Oc2nc(Nc3cc(C)[nH]n3)cc(-c3ccccc3)n2)cc1 [IIIb-11]		6.00 to 7.00
Cc1cc(Nc2cc(-c3ccccc3)nc(Oc3ccc4ccccc4c3)n2)n[nH]1 [IIIb-12]		6.00 to 7.00
Cc1cc(Nc2cc(-c3ccccc3)nc(Oc3ccc(NC(=O)C(C)C)cc3)n2)n[nH]1 [IIIb-13]		> 7.00
Cc1cc(Nc2cc(-c3ccccc3)nc(Nc3ccccc3)n2)n[nH]1 [IIIc-1, (5-Methyl-2H-pyrazol-3-yl)-(6-phenyl-2-phenylamino-pyrimidin-4-yl)-amine]		6.00 to 7.00
COc1cc(-c2cc(Nc3cc(C)[nH]n3)nc(Nc3ccc(S(N)(=O)=O)cc3)n2)cc(OC)c1OC [IIIc-8, (5-Methyl-2H-pyrazol-3-yl)-[2-(4-sulfamoylphenylamino)-6-(3,4,5-trimethoxyphenyl)-pyrimidin-4-yl]-amine]		6.00 to 7.00
Cc1cc(Nc2cc(-c3ccccc3)[nH]n2)nc(Nc2nc3ccccc3[nH]2)n1 [IIIc-16, [2-(Benzimidazol-2-ylamino)-6-methyl-pyrimidin-4-yl]-(5-phenyl-2H-pyrazol-3-yl)-amine]		5.15 to 6.00

SMILES	melting point [°C]	pKi (GSK-3β (AA 1-420))
Cc1cc(Nc2cc(-c3ccco3)[nH]n2)nc(Nc2nc3ccccc3[nH]2)n1 [IIIc-17, [2-(Benzimidazol-2-ylamino)-6-methyl-pyrimidin-4-yl]-[5-(Furan-2-yl)-2H-pyrazol-3-yl]-amine]		5.15 to 6.00
Cc1cc(Nc2cc(C)[nH]n2)nc(Nc2ccc(Cl)cc2)n1 [IIIc-18, [2-(4-Chlorophenylamino)-6-methyl-pyrimidin-4-yl]-(5-methyl-2H-pyrazol-3-yl)-amine]		> 7.00
Cc1cc(Nc2nc(Nc3ccc(Cl)cc3)nc(C)c2C)n[nH]1 [IIIc-19, [2-(4-Chlorophenyl)amino-5,6-dimethyl-pyrimidin-4-yl]-(5-methyl-2H-pyrazol-3-yl)-amine]		> 7.00
Cc1cc(Nc2nc(Nc3ccccc3)nc(C)c2C)n[nH]1 [IIIc-20, (5,6-Dimethyl-2-phenylamino-pyrimidin-4-yl)-(5-methyl-2H-pyrazol-3-yl)-amine]		6.00 to 7.00
COCc1cc(Nc2cc(C)[nH]n2)nc(Nc2ccc(Cl)cc2)n1 [IIIc-21, [2-(4-Chlorophenyl)amino-6-methoxymethyl-pyrimidin-4-yl]-(5-methyl-2H-pyrazol-3-yl)-amine]		> 7.00
COCc1cc(Nc2cc(C)[nH]n2)nc(Nc2nc3ccccc3[nH]2)n1 [IIIc-22, [2-(Benzimidazol-2-ylamino)-6-methoxymethyl-pyrimidin-4-yl]-(5-methyl-2H-pyrazol-3-yl)-amine]		5.15 to 6.00
COCc1cc(Nc2cc(C)[nH]n2)nc(Nc2ccccc2)n1 [IIIc-23, (6-Methoxymethyl-2-phenylamino-pyrimidin-4-yl)-(5-methyl-2H-pyrazol-3-yl)-amine]		6.00 to 7.00
Cc1cc(Nc2cc(C)[nH]n2)nc(Nc2ccccc2)n1 [IIIc-24, (6-Methyl-2-phenylamino-pyrimidin-4-yl)-(5-methyl-2H-pyrazol-3-yl)-amine]		> 7.00
Cc1cc(Nc2cc(C)[nH]n2)nc(C(C)(C)c2ccccc2)n1 [IIId-21]		> 7.00
Cc1cc(Nc2nc(Nc3ccccc3)nc3c2CCCC3)n[nH]1 [IIc-45, (5-Methyl-2H-pyrazol-3-yl)-(2-phenylamino-5,6,7,8-tetrahydroquinazolinin-4-yl)-amine]		6.00 to 7.00
c1ccc(Nc2nc(Nc3n[nH]c4ccccc34)c3ccccc3n2)cc1 [IIc-70, (1H-Indazol-3-yl)-(2-phenylamino-quinazolin-4-yl)-amine]		5.15 to 6.00
FC(F)(F)c1ccc(Nc2nc(Nc3n[nH]c4ccccc34)c3ccccc3n2)cc1 [IIc-72, (1H-Indazol-3-yl)-[2-(4-trifluoromethylphenylamino)-quinazolin-4-yl]-amine]		6.00 to 7.00
N#CCc1ccc(Nc2nc(Nc3n[nH]c4ccccc34)c3ccccc3n2)cc1 [IIc-77, [2-(4-Cyanomethylphenylamino)-quinazolin-4-yl]-(1H-indazol-3-yl)-amine]		> 7.00
Cc1cc(Nc2nc(Nc3ccc(Cl)cc3)nc3c2CCCC3)n[nH]1 [IIc-78, [2-(4-Chlorophenylamino)-5,6,7,8-tetrahydroquinazolinin-4-yl]-(5-methyl-2H-pyrazol-3-yl)-amine]		> 7.00
Cc1cc(Nc2nc(Nc3ccccc3)nc3c2CCCCC3)n[nH]1 [IIc-79, (5-Methyl-2H-pyrazol-3-yl)-(2-phenylamino-6,7,8,9-tetrahydro-5H-cycloheptapyrimidin-4-yl)-amine]		6.00 to 7.00
Cc1cc(Nc2nc(C(C)(C)c3ccccc3)nc3c2CCCCC3)n[nH]1 [IId-14]		> 7.00
c1ccc(C2CC2c2nc(Nc3n[nH]c4ccccc34)c3ccccc3n2)cc1 (stereo not shown) [IId-16, (1H-Indazol-3-yl)-[2-(2-phenyl-cyclopropyl)-quinazolin-4-yl]-amine]		6.00 to 7.00
Fc1cccc2c(Nc3nc(C4CC4c4ccccc4)nc4ccccc34)n[nH]c12 (stereo not shown) [IId-17, (7-Fluoro-1H-indazol-3-yl)-[2-(2-phenyl-cyclopropyl)-quinazolin-4-yl]-amine]		6.00 to 7.00
Fc1ccc2[nH]nc(Nc3nc(C4CC4c4ccccc4)nc4ccccc34)c2c1 (stereo not shown) [IId-18, (5-Fluoro-1H-indazol-3-yl)-[2-(2-phenyl-cyclopropyl)-quinazolin-4-yl]-amine]		6.00 to 7.00
Cc1cc(Nc2nc(C3CC3c3ccccc3)nc3ccccc23)n[nH]1 (stereo not shown) [IId-19, (5-Methyl-1H-pyrazol-3-yl)-[2-(2-phenyl-cyclopropyl)-quinazolin-4-yl]-amine]		> 7.00
